What was measured:
Coagulation factor X = Coagulation factor X (Homo sapiens, UniProt P00742); assay: Inhibitory activity against coagulation factor X
Serine protease 1 = Serine protease 1 (Homo sapiens, UniProt P07477)
Chain of Serine protease 1 (P07477 whole entry): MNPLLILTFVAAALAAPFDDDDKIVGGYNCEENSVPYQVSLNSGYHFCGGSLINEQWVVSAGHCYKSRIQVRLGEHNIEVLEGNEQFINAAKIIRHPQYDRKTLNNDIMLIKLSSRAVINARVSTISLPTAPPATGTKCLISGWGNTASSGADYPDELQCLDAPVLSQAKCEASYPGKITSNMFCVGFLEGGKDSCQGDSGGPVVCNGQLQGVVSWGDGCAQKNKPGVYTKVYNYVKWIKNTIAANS
Description: Inhibitory activity against trypsin

Chain of Coagulation factor X (P00742 41-179 limits assumed): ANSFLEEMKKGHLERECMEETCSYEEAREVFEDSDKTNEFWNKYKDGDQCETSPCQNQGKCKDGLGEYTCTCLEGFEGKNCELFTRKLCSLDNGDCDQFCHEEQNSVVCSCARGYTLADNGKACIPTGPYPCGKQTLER
Chain of Coagulation factor X (P00742 235-488 limits assumed): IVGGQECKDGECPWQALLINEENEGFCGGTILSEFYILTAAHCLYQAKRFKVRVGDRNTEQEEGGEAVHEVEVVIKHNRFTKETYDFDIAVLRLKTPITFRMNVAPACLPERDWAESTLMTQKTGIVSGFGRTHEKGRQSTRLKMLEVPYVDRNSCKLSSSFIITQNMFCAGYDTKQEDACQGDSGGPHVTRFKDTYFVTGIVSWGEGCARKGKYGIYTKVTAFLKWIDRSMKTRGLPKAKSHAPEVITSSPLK

Row | IC50 (Coagulation factor X) [nM] | IC50 (Serine protease 1) [nM] | SMILES
1 | 1410 | 420 | N=C(N)NCCC[C@H](NC(=O)Cn1c(-c2ccccc2)c(Cl)nc(NCCc2ccccc2)c1=O)C(=O)c1nccs1
2 | > 100000 | 32 | N=C(N)c1ccc(CNC(=O)Cn2c(-c3cccc(N)c3)c(Cl)nc(NC3CCC3)c2=O)cc1
3 |  | 470 | N=C(N)NCCC[C@H](NC(=O)Cn1c(Cc2ccccc2)c(Cl)nc(NCCc2ccccc2)c1=O)C(=O)c1nccs1
4 | > 100000 | 64 | CC(C)Nc1nc(Cl)c(-c2cc(N)cc(C(=O)O)c2)n(CC(=O)NCc2ccc(C(=N)N)cc2)c1=O
